Results on six molecules are retold here after patent US20200155632A1, “COMPOSITION FOR TREATING AND PREVENTING MALE SEXUAL DISORDERS” (KOLINPHARMA S.P.A., priority 2017, published 2020).

The test system of one data set is diabetic rat. Conditions: cited from earlier work.
Data set [1] deals with subjects suffering from erectile dysfunction (from mild to moderate). Conditions: 600 mg/daily, 26 subjects; cited from earlier work.
For data set [2], the system named is cGMP in ECV-304 cells (human vascular endothelium cells). Put plainly: cGMP levels by ELISA in ECV-304 cells after treatment with Menix active ingredients and associations. The data set is classed as cell-based. More on the design: Average % deviation from control (cGMP levels): concentration or dose not given beside the values. The following applies: for pM (cGMP), levels of expression of cGMP: 48 hours of treatment, average of n=3 biological replicates, concentrations of Table 3, control 82.1; for Average % deviation from control (cGMP levels): 48 hours, vs non-treated cells. Here is the method: For this experiment, human vascular endothelium cells were selected (ECV-304). […] At this point, the cells were treated with trypsin and EDTA and were re-examined in appropriate culture flasks.
The cGMP levels were determined by ELISA assay, following the operating instructions given in the protocol supplied by the manufacturer (cGMP ELISA KIT—STA 505-5, Cloud Clone Corp), running the assay in the acetylated embodiment to increase the sensitivity thereof.
For the experiment, the ECV-304 cells were sowed in MW-6 and treated for 48 hours with the active ingredients of Menix and associations thereof. After the 48 hours had elapsed, the supernatants were collected and frozen at −80° C. until use. The untreated cells were used as a control.
The base levels of cGMP were determined by ELISA assay, following instructions supplied by the manufacturer (STA 505-5 Cell Biolabs Inc).
The results, expressed in terms of concentration (pM) of cGMP average±standard deviation (n=3 biological replicates), are set out in FIG. 3 and Table 4.
(In general: In an ELISA, binding on a coated surface is turned into a signal by an enzyme label.)

Data set [3] has as its system subjects suffering from mild erectile dysfunction. The following applies: 1.5 g daily for a month, oral, 24 subjects; cited from earlier work.
The conditions of data set [4]: oral administration; cited from earlier work.
Data set [5] can be described thus: Solubility tests of the active ingredients of Menix. The class given is physicochemical. The following applies: tested in order: culture medium, water, DMSO, organic solvents. An excerpt: Before being subjected to the cell assays, the active ingredients of Menix have been subjected to solubility tests to define the best solubilization agent for each of the assays.

In data set [6] the test system is rats with acute arteriogenic erectile dysfunction. Conditions: 2% p/v in water for three weeks; cited from earlier work.
The next data set relates to aged rats. The following applies: dissolved 1% in water; cited from earlier work.
Data set [7] concerns rats affected by type-1 diabetes. The following applies: 400 mg/kg/daily; cited from earlier work.
The next data set has as its system ICAM-1 and P-selectine. Conditions: 2 g daily, adjuvant to sildenafil twice weekly; cited from earlier work.

For the molecule `O=C(O)CCCCC1CCSS1` (racemic) [α-LIPOIC ACID, alpha-lipoic acid], the “Levels of endothelial NOS and neuron NOS” value with diabetic rat (65 mg/kg/daily for 15 days) was “increase in levels of endothelial NOS and of neuron NOS”. Also, the Corpus cavernosum dysfunctions result in the data set on diabetic rat (300 mg/kg/daily for a month) was “prevented and ameliorated corpus cavernosum dysfunctions”. In addition, the “Indicators connected to erectile dysfunction (IIEF-5)” value in [1] is reported as “significant improvement”. In [2], the “pM (cGMP), levels of expression of cGMP” value is given as 60 pM and the “Average % deviation from control (cGMP levels)” value (“Average % deviation from control” below) is given as −26.92%.

As to `NC(=O)NCCCC(N)C(=O)O` (centres unmarked) [CITRULLINE, 2-amino-5-(carbamoylamino)pentanoic acid], the “Erectile function on EHS and IIEF-5” value in data set [3] is “increase in erectile function”. For the same molecule, the “Blood levels of L-arginine compared with basic values” in data set [4] was “increase in the blood levels of L-arginine”. Besides, in data set [2], the “pM (cGMP), levels of expression of cGMP” value stood at 140 pM and the “Average % deviation from control” value worked out at 70.52%. For the same molecule, the “Solvent in which the active ingredient has been solubilized” value (from here on “Solvent”) in data set [5] is “Culture medium”. In data set [6], the Erectile function result is given as “significant improvement in erectile function” and the NO plasmatic levels result is recorded as “increasing NO plasmatic levels”.

As to `CC(=O)O[C@H](CC(=O)[O-])C[N+](C)(C)C` [N-ACETYL-L-CARNITINE, (R)-3-acetyloxy-4-trimethylammonio-butanoate], in data set [2], the “pM (cGMP), levels of expression of cGMP” value was 22 pM and the “Average % deviation from control” value is on record as −73.20%. For the same molecule, the “Solvent” value in [5] is on record as “Water”.

On to `NCCS(=O)(=O)O` [TAURINE, 2-aminoethanesulphonic acid], for which, in data set [2], the “pM (cGMP), levels of expression of cGMP” value is recorded as 137 pM and the “Average % deviation from control” value worked out at 66.87%. For the same molecule, the “Solvent” value in data set [5] is reported as “Culture medium”. For the same molecule, in the data set on aged rats, the “Levels of NOS and NO in the rat's penis” value was “increases levels of both NOS and NO”; the “Secretion of androgens, testosterone” value is “increases the secretion of androgens and in particular of testosterone”; the “Sperm quality (count, vitality, motility)” value is listed as “improves sperm quality”. Also, in data set [7], the “Levels of cGMP and eNOS in the corpus cavernosum” value was “increased the levels of both cGMP and eNOS”; the “Pressure inside the corpus cavernosum” value is “increase in pressure inside the corpus cavernosum”.

As for `NCC(=O)[O-].NCC(=O)[O-].[Zn+2]` [Zn, zinc bisglycinate], in [2], the “pM (cGMP), levels of expression of cGMP” value is recorded as 90 pM and the “Average % deviation from control” value was 9.62%.

With `CCC(=O)O[C@H](CC(=O)[O-])C[N+](C)(C)C` [propionyl-L-carnitine], the “Endogenous levels of endothelial dysfunction markers such as ICAM-1 and P-selectine” value in the data set on ICAM-1 and P-selectine is reported as “significant reduction”.
